In patent publication US10829796B2, “Bacteria identification and antimicrobial susceptibility test” (priority 2015, dated 2020):

Test system: bacteria in clinical bovine mastitis milk samples
Assay: Combined bacteria identification and antimicrobial susceptibility test (colour of wells, MIC) on clinical bovine mastitis milk samples
Format: cell-based
Protocol: Clinical bovine mastitis milk samples were collected by a vet clinic in South Island, New Zealand. Samples were stored in the freezer for several months and shipped frozen to the testing facility. In this Example, the term “clinical” means that dairy cows had clinical symptoms of an udder infection e.g. cow behaved unusual, milk clots, swollen udder among other typical symptoms. Testing was executed in microwell plate comprising of 24 wells (3×8 wells).
In addition, 20 ul of clinical mastitis sample was added to each well with a laboratory pipette.
Abbreviations • 1. 80 ul GC+10 ul Tell: 80 ul Giolitti Cantoni base broth+10 ul Tellurite solution (1%); • 2. 80 ul TSB/Esc/Fer Cit: 80 ul Tryptic soy broth containing 0.25% Esculin and 0.125% Ammonium Ferric Citrate; • 3. 80 ul TSB/Esc/Fer Cit+10 ul Genta: 80 ul Tryptic soy broth containing 0.25% Esculin and 0.125% Ammonium Ferric Citrate+10 ul of Gentamycin solution 10 mg/ml; • 4. 80 ul McC/PR25: 80 ul MacConkey broth (single strength) containing 0.0125% phenol red; and • 5. 80 ul TSB/PR25: 80 ul Tryptic soy broth containing 0.0125% phenol red. Bacteria Identification
Columns A to C and rows 1 and 2 were used for bacteria identification. A1: coagulase positive Staph; A2: Staphylococci; B1: Strep group D; B2: Strep group D; C1: general enrichment media (gram+ and gram-bacteria); C2: coliform bacteria.
Column A3 to A8: serial dilution of benzyl penicillin as potassium. Column B3 to B8: serial dilution of ceftiofur as hydrochloride. Column C3 to C8: serial dilution of cloxacillin as sodium. Antibiotic concentrations are listed as free form ranging between 4 ug/ml to 0.05 ug/ml.
Minimum inhibitory substance concentration (MIC) is here defined as the concentration if a colour change occurs between two wells (one well remains red with drug concentration 1, the other one yellow with drug concentration 2, whereas drug concentration 1 is larger than drug concentration 2) then the MIC is the value of drug concentration 1.
Table 21 indicates the microwell plate configuration #1; Drugs: Benzylpenicillin as potassium; Cloxacillin as sodium; Ceftiofur as hydrochloride; Drug concentration in each well (A3 to C8) is based on 80 μl composition+10 μl drug solution+20 μl clinical mastitis milk sample and equivalent to listed drug concentration in μg/ml; 20 ul of clinical bovine mastitis milk sample was added to each well (A1 to C8).
In addition, each well received one drop of clinical sample from a transfer pipette which was on average about 35 mg. This was determined through weighing the well plate prior and after the addition of clinical mastitis samples. This weight was then divided by 24.
• 1. 80 ul GC+10 ul Tell: 80 ul Giolitti Cantoni base broth+10 ul Tellurite solution (1%); • 2. 80 ul TSB/Esc/Fer Cit: 80 ul Tryptic soy broth containing 0.25% Esculin and 0.125% Ammonium Ferric Citrate; • 3. 80 ul TSB/Esc/Fer Cit+10 ul Genta: 80 ul Tryptic soy broth containing 0.25% Esculin and 0.125% Ammonium Ferric Citrate+10 ul of Gentamycin solution 10 mg/ml; • 4. 80 ul McC/PR25: 80 ul MacConkey broth (single strength) containing 0.0125% phenol red; and • 5. 80 ul TSB/PR25: 80 ul Tryptic soy broth containing 0.0125% phenol red.
Columns A to C and rows 1 and 2 were used for bacteria identification. A1: coagulase positive Staph; A2: Staphylococci; B1: Strep Group D; B2: -; C1: general enrichment media (gram+ and gram-); C2: coliform bacteria.
Column A3 to A8: serial dilution of benzyl penicillin as potassium. Drug concentrations given as free form ranging between 4 ug/ml to 0.05 ug/ml. Column B3 to B8: serial dilution of ceftiofur as hydrochloride. Drug concentrations given as free form ranging between 4 ug/ml to 0.05 ug/ml. Column C3 to C8: serial dilution of cloxacillin as sodium. Drug concentrations given as free form ranging between 4 ug/ml to 0.05 ug/ml.

Cc1onc(-c2ccccc2Cl)c1C(=O)N[C@@H]1C(=O)N2[C@@H]1SC(C)(C)[C@@H]2C(=O)O [cloxacillin]
Colour of media in each well (ID 5 to 8, T = 0 h (prior incubation, reference), plate configuration #2, drug 1 μg/ml): red
Colour of media in each well (ID 5 to 8, T = 0 h (prior incubation, reference), plate configuration #2, drug 2 μg/ml): red
Colour of media in each well (ID 5 to 8, T = 0 h (prior incubation, reference), plate configuration #2, drug 4 μg/ml): red
Colour of media in each well (ID 6, T = 23h, 37° C., plate configuration #2, drug 0.05 μg/ml (Table 31)): yellow
Colour of media in each well (ID 6, T = 23h, 37° C., plate configuration #2, drug 0.1 μg/ml (Table 31)): yellow
Colour of media in each well (ID 6, T = 23h, 37° C., plate configuration #2, drug 0.5 μg/ml (Table 31)): yellow
Colour of media in each well (ID 6, T = 23h, 37° C., plate configuration #2, drug 1 μg/ml (Table 31)): yellow
Colour of media in each well (ID 6, T = 23h, 37° C., plate configuration #2, drug 2 μg/ml (Table 31)): yellow
Colour of media in each well (ID 6, T = 23h, 37° C., plate configuration #2, drug 4 μg/ml (Table 31)): yellow
Colour of media in each well (ID 6, T~7 h, 37° C., plate configuration #2, Table 35, drug 0.05 μg/ml): yellow
Colour of media in each well (ID 6, T~7 h, 37° C., plate configuration #2, Table 35, drug 0.1 μg/ml): yellow
Colour of media in each well (ID 6, T~7 h, 37° C., plate configuration #2, Table 35, drug 0.5 μg/ml): yellow
Colour of media in each well (ID 6, T~7 h, 37° C., plate configuration #2, Table 35, drug 1 μg/ml): yellow
Colour of media in each well (ID 6, T~7 h, 37° C., plate configuration #2, Table 35, drug 2 μg/ml): yellow
Colour of media in each well (ID 6, T~7 h, 37° C., plate configuration #2, Table 35, drug 4 μg/ml): yellow
Colour of media in each well (ID 6, T~11 h, 37° C., plate configuration #2, Table 35, drug 0.05 μg/ml): yellow
Colour of media in each well (ID 6, T~11 h, 37° C., plate configuration #2, Table 35, drug 0.1 μg/ml): yellow
Colour of media in each well (ID 6, T~11 h, 37° C., plate configuration #2, Table 35, drug 0.5 μg/ml): yellow
Colour of media in each well (ID 6, T~11 h, 37° C., plate configuration #2, Table 35, drug 1 μg/ml): yellow
Colour of media in each well (ID 6, T~11 h, 37° C., plate configuration #2, Table 35, drug 2 μg/ml): yellow
Colour of media in each well (ID 6, T~11 h, 37° C., plate configuration #2, Table 35, drug 4 μg/ml): yellow
Colour of media in each well (ID 6, T~23 h, 37° C., plate configuration #2, Table 35, drug 0.05 μg/ml): yellow
Colour of media in each well (ID 6, T~23 h, 37° C., plate configuration #2, Table 35, drug 0.1 μg/ml): yellow
Colour of media in each well (ID 6, T~23 h, 37° C., plate configuration #2, Table 35, drug 0.5 μg/ml): yellow
Colour of media in each well (ID 6, T~23 h, 37° C., plate configuration #2, Table 35, drug 1 μg/ml): yellow
Colour of media in each well (ID 6, T~23 h, 37° C., plate configuration #2, Table 35, drug 2 μg/ml): yellow
Colour of media in each well (ID 6, T~23 h, 37° C., plate configuration #2, Table 35, drug 4 μg/ml): yellow
Colour of media in each well (ID 7, T = 23h, 37° C., plate configuration #2, drug 0.05 μg/ml): yellow
Colour of media in each well (ID 7, T = 23h, 37° C., plate configuration #2, drug 0.1 μg/ml): yellow
Colour of media in each well (ID 7, T = 23h, 37° C., plate configuration #2, drug 0.5 μg/ml): red
Colour of media in each well (ID 7, T = 23h, 37° C., plate configuration #2, drug 1 μg/ml): red
Colour of media in each well (ID 7, T = 23h, 37° C., plate configuration #2, drug 2 μg/ml): red
Colour of media in each well (ID 7, T = 23h, 37° C., plate configuration #2, drug 4 μg/ml): red
Colour of media in each well (ID 8, T = 23 h, 37° C., plate configuration #2, drug 0.05 μg/ml): yellow
Colour of media in each well (ID 8, T = 23 h, 37° C., plate configuration #2, drug 0.1 μg/ml): yellow
Colour of media in each well (ID 8, T = 23 h, 37° C., plate configuration #2, drug 0.5 μg/ml): red
Colour of media in each well (ID 8, T = 23 h, 37° C., plate configuration #2, drug 1 μg/ml): red
Colour of media in each well (ID 8, T = 23 h, 37° C., plate configuration #2, drug 2 μg/ml): red
Colour of media in each well (ID 8, T = 23 h, 37° C., plate configuration #2, drug 4 μg/ml): red
Colour of media in each well (Table 24, sample ID 2, 22 hours at 37° C., plate configuration #1, row 3 of serial dilution 4 ug/ml to 0.05 ug/ml): red
Colour of media in each well (Table 24, sample ID 2, 22 hours at 37° C., plate configuration #1, row 4 of serial dilution 4 ug/ml to 0.05 ug/ml): red
Colour of media in each well (Table 24, sample ID 2, 22 hours at 37° C., plate configuration #1, row 5 of serial dilution 4 ug/ml to 0.05 ug/ml): red
Colour of media in each well (Table 24, sample ID 2, 22 hours at 37° C., plate configuration #1, row 6 of serial dilution 4 ug/ml to 0.05 ug/ml): red
Colour of media in each well (Table 24, sample ID 2, 22 hours at 37° C., plate configuration #1, row 7 of serial dilution 4 ug/ml to 0.05 ug/ml): yellow
Colour of media in each well (Table 24, sample ID 2, 22 hours at 37° C., plate configuration #1, row 8 of serial dilution 4 ug/ml to 0.05 ug/ml): yellow
MIC (clinical sample ID 1 (streptococci group D), 37° C. for 22 hours, plate configuration #1): 0.5 mg/L
MIC (clinical sample ID 2 (streptococci group D, also coagulase positive Staph), 37° C. for 22 hours, plate configuration #1): 0.5 mg/L
MIC (clinical sample ID 4 (coagulase positive Staph), 37° C. for 22 hours, plate configuration #1): 0.5 mg/L
MIC (clinical sample ID 5 (streptococci group D), 37° C. for 23 hours, plate configuration #2): 0.5 mg/L
MIC (clinical sample ID 7 (coagulase positive Staph), 37° C. for 23 hours, plate configuration #2): 0.5 mg/L
MIC (clinical sample ID 8 (coagulase negative Staph and Streptococci group D), 37° C. for 23 hours, plate configuration #2): 0.5 mg/L
